This passage reports MIC and zone of inhibition results from paper PMC7065771, “Dietary supplementation of recombinant antimicrobial peptide Epinephelus lanceolatus piscidin improves growth performance and immune response in Gallus gallus domesticus” (PLoS ONE, 2020).

Experiment [1] has as its system Vibrio parahaemolyticus. The following applies: synthetic peptide, microbroth dilution series, Gram -.
Experiment [2] relates to MRSA. Type of experiment: cell-based, Methicillin-resistant Staphylococcus aureus. The note with it: 24 h. As to the method: (§1) All assays were performed in triplicate.
The test system of experiment [3] is Staphylococcus aureus subsp. Type of experiment: cell-based. The note with it: 24 h. As to the method:
as §1

The subject of experiment [4] is Klebsiella oxytoca. In kind it is cell-based. The note with it: 24 h. As to the method:
as §1

Experiment [5] relates to Escherichia coli. Type of experiment: cell-based. The note with it: 24 h. As to the method:
as §1

The subject of experiment [6] is Streptococcus equinus. In kind it is cell-based. The following applies: 24 h. As to the method: as §1
Experiment [7] relates to Streptococcus agalactiae. In kind it is cell-based. The following applies: 24 h. As to the method: as §1
The subject of experiment [8] is Riemerella anatipestifer (RA3). Nature of the experiment: Inhibition zone (disk diffusion) assay. Type of experiment: cell-based. The following applies: Riemerella anatipestifer; disk paper 16 h at 37°C; ampicillin 2 mg/ml, 10 μl; read-out: Inhibition zone diameter. As to the method: as §1
(§2) The antimicrobial activity of rEP from flask cultures was evaluated by determining its ability to prevent growth of Gram-positive and Gram-negative bacteria with a disk diffusion assay. […] The most susceptible pathogens were R. anatipestifer (CFC27) and R. anatipestifer (CFC437) (Table 3a). Next, we investigated the thermostability of flask-fermented rEP with regard to its toxicity toward S. aureus (BCRC 10780), E. coli (BCRC 10675) and P. aeruginosa (ATCC 19660). Empty vector with no insert in P. pastoris was used as a control. Thermostability was measured by disk diffusion assay after cultures were incubated for 5 min at 40, 60, 80, or 100°C (Table 3b).
Background: Agar diffusion results depend on both activity and mobility in agar.

The test system of experiment [9] is Riemerella anatipestifer (CFC27). Briefly: Inhibition zone (disk diffusion) assay. In kind it is cell-based. The note with it: Riemerella anatipestifer; disk paper 16 h at 37°C; ampicillin 2 mg/ml, 10 μl; read-out: Inhibition zone diameter. As to the method: as §1, §2
Experiment [10] has as its system Riemerella anatipestifer (RA16). Nature of the experiment: Inhibition zone (disk diffusion) assay. The following applies: disk paper on culture plate 16 h at 37°C, rEP: shake-flask supernatant 120 h after induction, maximum carrying capacity, ampicillin 2 mg/ml, 10 μl, read-out: Inhibition zone diameter. Type of experiment: cell-based. As to the method:
as §1, §2

Experiment [11] has as its system Pseudomonas aeruginosa (ATCC 19660). Briefly: Inhibition zone (disk diffusion) assay. Type of experiment: cell-based. The note with it: Pseudomonas aeruginosa, ATCC19660; disk paper on culture plate 16 h at 37°C; rEP: shake-flask supernatant 120 h after induction, maximum carrying capacity; ampicillin 2 mg/ml, 10 μl; read-out: Inhibition zone diameter. As to the method: as §1, §2

Experiment [12] concerns Riemerella anatipestifer (CFC363). Nature of the experiment: Inhibition zone (disk diffusion) assay. The note with it: disk paper on culture plate 16 h at 37°C, rEP: shake-flask supernatant 120 h after induction, maximum carrying capacity, ampicillin 2 mg/ml, 10 μl, read-out: Inhibition zone diameter. Type of experiment: cell-based. As to the method:
as §1, §2

Experiment [13] relates to Riemerella anatipestifer (CFC437). Briefly: Inhibition zone (disk diffusion) assay. Type of experiment: cell-based. The note with it: Riemerella anatipestifer; disk paper 16 h at 37°C; ampicillin 2 mg/ml, 10 μl; read-out: Inhibition zone diameter. As to the method:
as §1, §2

Experiment [14] has as its system Riemerella anatipestifer (RA9). Nature of the experiment: Inhibition zone (disk diffusion) assay. Type of experiment: cell-based. The note with it: disk paper on culture plate 16 h at 37°C, rEP: shake-flask supernatant 120 h after induction, maximum carrying capacity, ampicillin 2 mg/ml, 10 μl, read-out: Inhibition zone diameter. As to the method:
as §1, §2

Experiment [15] concerns Escherichia coli (BCRC 10675). Nature of the experiment: Inhibition zone (disk diffusion) assay. Type of experiment: cell-based. The following applies: Escherichia coli, BCRC10675; disk paper on culture plate 16 h at 37°C; rEP: shake-flask supernatant 120 h after induction, maximum carrying capacity; ampicillin 2 mg/ml, 10 μl; read-out: Inhibition zone diameter. As to the method:
as §1, §2

Experiment [16] deals with Staphylococcus aureus (BCRC 10780). Briefly: Inhibition zone (disk diffusion) assay. Type of experiment: cell-based. The note with it: Staphylococcus aureus, BCRC10780; disk paper on culture plate 16 h at 37°C; rEP: shake-flask supernatant 120 h after induction, maximum carrying capacity; ampicillin 2 mg/ml, 10 μl; read-out: Inhibition zone diameter. As to the method:
as §1, §2

For experiment [17], the system named is Pseudomonas aeruginosa. In kind it is cell-based. The note with it: 24 h. As to the method:
as §1

As to “Ac-CFFRHIKSFWRGAKAIFRGARQGWRE-NH2 [G6497-t1]”, the MIC in experiment [1] worked out at 60 µg/mL; in experiment [2] it was 60 µg/mL; in [3] it was 60 µg/mL; in experiment [4], 30 µg/mL; in experiment [5] it was 30 µg/mL; in experiment [6], 15 µg/mL. The compound also gave an MIC in experiment [7] of 60 µg/mL.

Take `CC1(C)S[C@@H]2[C@H](NC(=O)[C@H](N)c3ccccc3)C(=O)N2[C@H]1C(=O)O` [Ampicillin, reference compound]: the zone of inhibition at 2000 µg/mL came to 12 ± 2.5 mm in [8]; 43 ± 1.1 mm in [9]; 30 ± 1.2 mm in [10]; 11.6 ± 0.5 mm in [11]; 32 ± 2.3 mm in experiment [12]; 15 ± 4.5 mm in [13]. Also, the zone of inhibition at 2000 µg/mL in experiment [14] is 31 ± 0.8 mm; in experiment [15], 13.6 ± 0.5 mm; in experiment [16], 14.6 ± 0.5 mm.

Take “Ac-CIMKHLRNLWNGAKAIYNGAKAGWTEFK-NH2 [G6496-t1]”: the MIC in [3] was 60 µg/mL; in experiment [4], 60 µg/mL; in experiment [5] it was 60 µg/mL; in [6], 30 µg/mL; in [7], 60 µg/mL.

Turning to “Ac-GFIFHIIKGLFHAGRMIHGLVNRRRHRHGMEE-NH2 [G6498-t1]”, the minimal inhibitory concentration (MIC) in experiment [1] was determined as 5.6 µg/mL; in [2], 5.6 µg/mL; in [3] it was 90 µg/mL; in experiment [4] it was 45 µg/mL; in experiment [17] it was 45 µg/mL; in [5] it was 22.5 µg/mL. The MIC was 11.2 µg/mL in [6] and 90 µg/mL in experiment [7].

Broadly, the MIC is the least concentration at which growth counts as inhibited.
